Measured values: patent US20200368322A1, “METHODS OF IDENTIFYING AND USING AGENTS FOR TREATING DISEASES ASSOCIATED WITH INTESTINAL BARRIER DYSFUNCTION” (Yeda Research and Development Co. Ltd., priority 2018, published 2020)
“Also recorded” adds a separate entry of the source. No end group written: not given here.

What was measured:
[1] = system: tight junctions of Caco2 cells; assay: Caco2 tight junction morphology (cingulin or ZO-1 staining, tortuosity); format: cell-based, human; conditions: for tight junctions morphology (cingulin): 50 ng/ml TNFa, 30 ng/ml IL1-b, 100 ng/ml LPS; for tight junction distortion caused by LPS: 10 mM taurine, 1 mM tryptamine, 10 mM L-homo-serine, in combination with LPS; for tight junction morphology: 10 mM acetyl-proline, 1 mM putrescine, 10 mM histamine, 5 mM spermine; for tight junction disruption phenotype (type 1 zipper-like, type 2 flower-like): known IBD mediators
Method: (§1) CaCo-2 cells were purchased from ATCC. Cells were routinely grown in regular tissue culture medium (DMEM, 10% FCS, penicillin/streptomycin, GlutaMAX). For experiments with differing glucose concentrations, cells were routinely cultured in low-glucose DMEM (1 g/l glucose). Cells were seeded onto 96-well glass-bottom plates coated with either fibronectin or collagen 70 000 cells/well and allowed to grow for 24 hours to form confluent monolayer before indicated treatments.
(§2) For high resolution images of manually selected representative fields, a DeltaVision wide field fluorescent microscope (GE Healthcare) equipped with 40×UPlanFLN or 60×/1.42 PlanApo N oil objective (Olympus) was used. For multi-well plate scanning, the following automated imaging stations were used: DeltaVision microscope with plate scanning regiment, Hermes imaging station (IDEA bio-Medical) or ImagExpress microXL imaging station (Molecular Devices) equipped by 40× air objectives. In all cases in order to cover the curvature of apical surface of epithelial monolayer 5 μm thick z-stack was acquired around the tight junction plane (identified by best focus algorithm) and resulting image was generated as a maximum projection of all optical sections.
(§3) Cell images were segmented using Morphological Segmentation ImageJ plug-in and junction tortuosity was calculated as a ratio between junction length and Euclidian distance between its ends.

[2] = system: focal adhesions of Caco2 cells; assay: Caco2 cell-matrix focal adhesions (paxillin staining); format: cell-based, human; conditions: for focal adhesions size vs control non treated cells / enlargement of focal adhesions caused by LPS: 1 mM tryptamine, 10 mM L-homo-serine; for enlargement of focal adhesions caused by LPS: with LPS; for focal adhesions size: 10 mM acetyl-proline, 1 mM putrescine, 10 mM histamine, 5 mM spermine
Method: as §1, §2

Caco2 cells = assay: Traction force microscopy; format: cell-based, human; conditions: Caco2 islands on polyacrylamide hydrogels, 24 hours treatment
Method: SoftTrac 6 well plates with pre-made collagen coated 12 kPa hydrogels containing embedded 0.2 μm fluorescent beads were purchased from Matrigen. 200,000 cells per well were plated and allowed to grow for 24 hours to form epithelial islands, treated with the indicated metabolite for another 24 hours and live-imaged using DeltaVision microscope equipped with environmental chamber. After acquisition of cell and fluorescent bead images in steady state conditions, cells were detached with trypsin and imaging of beads was repeated in a relaxed state. Displacement map generation and force calculations were performed using MatLab script described in Butler et al. Am J Physiol Cell Physiol. 2002.

[3] = system: tight junctions of Caco2 cells; assay: Human secreted molecules library screen for tight junction modulators; format: cell-based; conditions: Caco2, 24 hours; ng/ml: TNFa 50, Il-15 25, CCL-20 50, CCL-23 50, FGF-1 25, FGF-10 100, BMP-10 50, UTS-2 10, UCN-1 20, EPO 10, UCN-3 20, IL-21 30, CCL-3 40, TIMP-2 100, FasLG 10
Method: as §1, §3
A protein library, consisting of 295 human secreted proteins was used for identification of potential modulators of the barrier function of human intestinal epithelial cells.

Q: Which “tight junctions morphology (cingulin)” value ([1]; Caco2 cells) does the source give for “IL1-b: cytokine, known pro-inflammatory IBD mediator” here?
A: The value was “significant alteration in tight junctions morphology”.

Q: For `Cc1ccc2c(c1)C(=O)C1(O)CCN(c3ccccc3)C1=N2` (stereo not shown) [blebbistatin, reference compound], which “disruptive effect of LPS and histamine on tight junctions” value ([1]; Caco2 cells, co-treatment with 20 μM blebbistatin) is on record?
A: Its value is “abolishes disruptive effect of LPS and histamine on tight junctions”.

Q: What about the “focal adhesions enlarged by LPS or histamine” value ([2]; co-treatment with 20 μM blebbistatin) of the same molecule?
A: Its value is “reduction of focal adhesions”.

Q: And the “forces applied to the substrate (cell contractility)” value (Caco2 cells)?
A: Its value is “cause cell relaxation”.

Q: With “Urocortin 3 (FTLSLDVPTNIMNLLFNIAKAKNLRAQAAANAHLMAQI; ends and bridges not checked; UniProt Q969E3 120-157, looked up) [UCN-3]” as the molecule, how does the “TJ morphology (cingulin) in secreted molecules screen” value (shortened to “TJ morphology (cingulin)”) [3] read?
A: Its value is “changes in TJ morphology similar to previously observed upon treatment with known pro-inflammatory mediators”.

Q: Which “recovery of TJ structure on replacement of disruptors with stabilizer” value ([1]; CaCo2 cells pretreated with LPS, histamine or putrescine, even in the presence of the disruptors) does the source give for `NCCc1c[nH]c2ccccc12` [tryptamine] here?
A: The value was “full recovery of TJ structure”.

Q: What about the “effect on tight junctions in metabolite screen” value ([1]; Caco2 cells) of the same molecule?
A: Its value is “Stabilization”.

Q: And the “tight junction distortion caused by LPS” value ([1]; Caco2 cells)?
A: The value was “abolish tight junction distortion caused by LPS treatment alone”.

Q: And the “disrupting activity of dysbiotic fecal extract” value ([1]; Caco2 cells, extract combined with 1 mM tryptamine or fecal extract from healthy animals)?
A: The value was “neutralized”.

Q: And the “focal adhesions size vs control non treated cells” value [2]?
A: The value was “reduction in focal adhesions size”.

Q: And the “enlargement of focal adhesions caused by LPS” value [2]?
A: Its value is “prevent enlargement focal adhesions caused by LPS treatment”.

Q: What about the “forces applied to the substrate (cell contractility)” value (Caco2 cells) of the same molecule?
A: Its value is “cause cell relaxation”.

Q: For Fibroblast growth factor 1 [FGF-1], which “TJ morphology (cingulin)” value [3] is on record?
A: Its value is “changes in TJ morphology similar to previously observed upon treatment with known pro-inflammatory mediators”.

Q: What does the source list for `CC(=O)N1CCC[C@H]1C(=O)O` [N-acetylproline]?
A: effect on tight junctions in metabolite screen ([1]; Caco2 cells): Disruption; tight junction morphology ([1]; Caco2 cells): distortion of tight junction morphology; focal adhesions size [2]: increase of focal adhesions size

Q: Which results are given for `N[C@@H](CCO)C(=O)O` [L-homoserine]?
A: effect on tight junctions in metabolite screen ([1]; Caco2 cells): Stabilization; tight junction distortion caused by LPS ([1]; Caco2 cells): abolish tight junction distortion caused by LPS treatment alone; focal adhesions size vs control non treated cells [2]: reduction in focal adhesions size; enlargement of focal adhesions caused by LPS [2]: prevent enlargement focal adhesions caused by LPS treatment

Q: For “Urocortin 1 (DNPSLSIDLTFHLLRTLLELARTQSQRERAEQNRIIFDSV; ends and bridges not checked; UniProt P55089 83-122, looked up) [UCN-1]”, which “TJ morphology (cingulin)” value [3] is on record?
A: The value was “changes in TJ morphology similar to previously observed upon treatment with known pro-inflammatory mediators”.

Q: For “Urotensin 2 (ETPDCFWKYCV; ends and bridges not checked; cysteine pairing not given here; UniProt O95399 114-124, looked up) [UTS-2]”, which “TJ morphology (cingulin)” value [3] is on record?
A: Its value is “changes in TJ morphology similar to previously observed upon treatment with known pro-inflammatory mediators”.

Q: How did the “TJ morphology (cingulin)” value [3] turn out when Chemokine ligand 20 [CCL-20] was run?
A: Its value is “changes in TJ morphology similar to previously observed upon treatment with known pro-inflammatory mediators”.

Q: How did the “distortion of tight junctions on co-treatment of stabilizer with disruptor” value ([1]; Caco2 cells, cingulin) turn out when Interleukin-21 [IL-21] was run?
A: The value was “abolished distortion of tight junctions observed in the treatment with disruptors alone”.

Q: And the “TJ tortuosity on co-treatment of disruptor with stabilizer” value ([1]; Caco2 cells, N≥200)?
A: Its value is “reduces tortuosity to the level of untreated control”.

Q: And the “enlargement of focal adhesions on co-treatment with disruptor” value ([2]; paxilin)?
A: Its value is “prevents enlargement of focal adhesions caused by treatments with disruptors only”.

Q: What about the “TJ morphology (cingulin)” value [3] of the same molecule?
A: The value was “improvement of TJ morphology in comparison to non-treated control”.

Q: For TNFa, which “tight junction disruption phenotype (type 1 zipper-like, type 2 flower-like)” value ([1]; Caco2 cells) is on record?
A: Its value is “type 1”.

Q: What about the “tight junctions morphology (cingulin)” value ([1]; Caco2 cells) of the same molecule?
A: Its value is “significant alteration in tight junctions morphology”.

Q: And the “TJ morphology (cingulin)” value [3]?
A: The value was “changes in TJ morphology similar to previously observed upon treatment with known pro-inflammatory mediators”.

Q: For Interleukin-15 [Il-15], which “TJ morphology (cingulin)” value [3] is on record?
A: Its value is “changes in TJ morphology similar to previously observed upon treatment with known pro-inflammatory mediators”.

Q: With `NCCCNCCCCNCCCN` [spermine] as the molecule, how does the “effect on tight junctions in metabolite screen” value ([1]; Caco2 cells) read?
A: The value was “Disruption”.

Q: What about the “tight junction disruption phenotype (type 1 zipper-like, type 2 flower-like)” value ([1]; Caco2 cells) of the same molecule?
A: Its value is “type 2”.

Q: And the tight junction morphology ([1]; Caco2 cells)?
A: The tight junction morphology was “distortion of tight junction morphology”.

Q: And the “tight junction phenotype in combination with LPS” value ([1]; Caco2 cells, type 2 disruptor plus LPS)?
A: The value was “double effect”.

Q: What about the focal adhesions size [2] of the same molecule?
A: Its focal adhesions size is “increase of focal adhesions size”.

Q: For “Tissue metalloprotease inhibitor 2 [TIMP-2]”, which “TJ morphology (cingulin)” value [3] is on record?
A: The value was “improvement of TJ morphology in comparison to non-treated control”.

B1: Chemokine ligand 3 (protein, UniProt P10147 24-92, looked up)
C-C motif chemokine 3: SLAADTPTACCFSYTSRQIPQNFIADYFETSSQCSKPGVIFLTKRSRQVCADPSEEWVQKYVSDLELSA
Q: Which “TJ morphology (cingulin)” value [3] does the source give for B1 here?
A: Its value is “improvement of TJ morphology in comparison to non-treated control”.

B2: Chemokine ligand 23 (protein, UniProt P55773 22-120, looked up)
C-C motif chemokine 23: RVTKDAETEFMMSKLPLENPVLLDRFHATSADCCISYTPRSIPCSLLESYFETNSECSKPGVIFLTKKGRRFCANPSDKQVQVCMRMLKLDTRIKTRKN
Q: Which “TJ morphology (cingulin)” value [3] does the source give for B2 here?
A: The value was “changes in TJ morphology similar to previously observed upon treatment with known pro-inflammatory mediators”.

B3: Fibroblast growth factor 10 (protein, UniProt O15520 38-208, looked up)
Fibroblast growth factor 10: QALGQDMVSPEATNSSSSSFSSPSSAGRHVRSYNHLQGDVRWRKLFSFTKYFLKIEKNGKVSGTKKENCPYSILEITSVEIGVVAVKAINSNYYLAMNKKGKLYGSKEFNNDCKLKERIEENGYNTYASFNWQHNGRQMYVALNGKGAPRRGQKTRRKNTSAHFLPMVVHS
Q: With B3 as the molecule, how does the “TJ morphology (cingulin)” value [3] read?
A: Its value is “changes in TJ morphology similar to previously observed upon treatment with known pro-inflammatory mediators”.

B4: Fas ligand (protein, UniProt P48023 130-281, looked up)
Tumor necrosis factor ligand …: QIGHPSPPPEKKELRKVAHLTGKSNSRSMPLEWEDTYGIVLLSGVKYKKGGLVINETGLYFVYSKVYFRGQSCNNLPLSHKVYMRNSKYPQDLVMMEGKMMSYCTTGQMWARSSYLGAVFNLTSADHLYVNVSELSLVNFEESQTFFGLYKL
Q: For B4, which “TJ morphology (cingulin)” value [3] is on record?
A: The value was “improvement of TJ morphology in comparison to non-treated control”.

B5: Bone morphogenetic protein 10 (protein, UniProt O95393 317-424, looked up)
Bone morphogenetic protein 10: NAKGNYCKRTPLYIDFKEIGWDSWIIAPPGYEAYECRGVCNYPLAEHLTPTKHAIIQALVHLKNSQKASKACCVPTKLEPISILYLDKGVVTYKFKYEGMAVSECGCR
Q: With B5 as the molecule, how does the “TJ morphology (cingulin)” value [3] read?
A: The value was “changes in TJ morphology similar to previously observed upon treatment with known pro-inflammatory mediators”.

B6: IL-22: human non-inflammatory cytokine (protein, UniProt Q9GZX6 34-179, looked up)
Interleukin-22: APISSHCRLDKSNFQQPYITNRTFMLAKEASLADNNTDVRLIGEKLFHGVSMSERCYLMKQVLNFTLEEVLFPQSDRFQPYMQEVVPFLARLSNRLSTCHIEGDDLHIQRNVQKLKDTVKKLGESGEIKAIGELDLLFMSLRNACI
Q: B6 was tested. Which “tight junction morphology on co-treatment with pro-inflammatory agents” value ([1]; Caco2 cells, 100 ng/ml IL-22 plus TNFa, IL1-b or LPS) did it give?
A: The value was “blocked; also recorded: completely restored normal tight junction morphology”.
